Reference: patent publication US20240025893A1, “PYRIMIDINE-AND NITROGEN-CONTAINING BICYCLIC COMPOUND” (Asahi Kasei Pharma Corporation, priority 2020, published 2024)

Key:
[1] = target: human IRAK-4 (Homo sapiens (Human), UniProt Q9NWZ3); test: Measurement of human IRAK-4 inhibitory activity (TR-FRET, peptide substrate phosphorylation, 10 μM ATP); assay type: biochemical; details: 1 nM IRAK-4, 10 μM ATP, 23° C., 30 minutes; average values
Experimental: For the measurement of the activity of the human IRAK-4 (Invitrogen, Cat. PV3362), phosphorylation of the IRAK-4 peptide substrate (biotin-KKKKRFSFKKSFKC) by the enzyme in the presence of 10 μM ATP (Sigma-Aldrich, Cat. A7699) was measured by the TR-FRET method. The enzymatic reaction was performed in a reaction buffer containing 50 mM HEPES (pH 7.2), 1 mM DTT, 0.1 mM Na3VO4, 5 mM MgCl2, 1 mM MnCl2, and 0.1% bovine serum albumin. For the measurement of the IRAK-4 inhibitory activity, a test compound was added to the reaction buffer containing 1 nM IRAK-4, 0.5 μM peptide substrate, and 10 μM ATP, and the mixture was incubated at 23° C. for 30 minutes. Then, a detection solution containing an antibody labeled with europium cryptate (0.3 μg/mL, the antibody was prepared by using the IRAK-4 peptide substrate as the antigen), streptavidin-XL665 (2 μg/mL, CisBio, Cat. 610SAXLB), 50 mM HEPES (pH 7.2), 0.1% BSA, 120 mM KF, and 66.7 mM EDTA (all the concentrations of the reagents are final concentrations) was added to terminate the reaction, and then the mixture was further incubated at 23° C. for 60 minutes. Fluorescence intensity was measured at wavelengths of 665 nm and 620 nm with a microplate reader, and the enzymatic activity was calculated as the ratio of fluorescence intensities at 665 nm and 620 nm (665 nm/620 nm).

[2] = system: LPS-stimulated TNFα production in THP-1 cells; test: LPS-stimulated TNFα production inhibition test using human acute monocytic leukemia cell strain THP-1; assay type: cell-based; details: Homo sapiens, THP-1, 4 h, LPS 2.5 ng/mL, average values
Experimental: By the THP-1 assay, influence of a test compound on the TNFα production induced by LPS stimulation can be evaluated. The THP-1 cells (ATCC, Cat. TIB-202) were inoculated on a 96-well plate at a density of 1×10^5 cells/160 μL/well, a test compound was added in a volume of 20 μL, and the plate was incubated at 37° C. for 1 hour in a 5% CO2 incubator. Then, LPS in a volume of 20 μL (final concentration 2.5 ng/mL, Sigma, Cat. L2630) was added, and the plate was further incubated for 4 hours. After the incubation, the plate was centrifuged, and 100 μL of the supernatant was taken from each well, and used for evaluation of the amount of TNFα using HTRF (Cisbio, Cat. 62TNFPEB). In the measurement of the amount of TNFα, the supernatant was diluted twice with the medium, and then added to wells of a 384-well plate in a volume of 10 μL, then anti-TNFα-cryptate (5 μL), and anti-TNFα-XL665 (5 μL) were added, and the plate was left standing overnight. The fluorescence intensity ratio for the wavelengths of 620 and 665 nm (620 nm/665 nm) was measured with a microplate reader, and the amount of TNFα in the supernatant was calculated by using a calibration curve. The TNFα production suppression ratio observed with no addition of LPS was defined to be 100%, the TNFα production suppression ratio observed with no addition of the test compound was defined to be 0%, and IC50 of the test compound was calculated by using the 4-parameter logistic model of the data analysis software XLfit (ID Business Solutions Ltd.).

human IRAK-4, sequence (Q9NWZ3 whole entry): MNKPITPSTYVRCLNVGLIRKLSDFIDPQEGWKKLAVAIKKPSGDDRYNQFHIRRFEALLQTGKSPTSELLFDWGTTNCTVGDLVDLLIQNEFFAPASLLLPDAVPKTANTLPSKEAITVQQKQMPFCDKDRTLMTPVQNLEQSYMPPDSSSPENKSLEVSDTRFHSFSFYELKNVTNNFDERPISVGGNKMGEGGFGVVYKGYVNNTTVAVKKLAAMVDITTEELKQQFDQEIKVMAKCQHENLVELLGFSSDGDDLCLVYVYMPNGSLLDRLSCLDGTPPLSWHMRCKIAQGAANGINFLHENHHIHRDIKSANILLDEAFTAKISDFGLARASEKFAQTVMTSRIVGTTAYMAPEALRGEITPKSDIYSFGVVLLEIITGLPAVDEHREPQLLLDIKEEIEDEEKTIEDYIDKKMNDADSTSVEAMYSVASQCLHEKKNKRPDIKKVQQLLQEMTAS

IC50 [1]	IC50 [2]	SMILES
1.89 nM	121 nM	O=C(Nc1nc2ccc(-c3cnc(CO[C@H]4CCC[C@@H]4O)nc3)cc2s1)C1CC1 [a-01-01, N-(6-(2-((((1S,2S)-2-Hydroxycyclopentyl)oxy)methyl)pyrimidin-5-yl)benzo[d]thiazol-2-yl)cyclopropanecarboxamide]
1.98 nM	180 nM	O=C(Nc1nc2ccc(-c3cnc(CO[C@H]4CCC[C@@H]4O)nc3)cc2s1)[C@H]1C[C@H]1F [a-01-02]
2.69 nM	141 nM	O=C(Nc1nc2ccc(-c3cnc(CO[C@H]4CCC[C@@H]4O)nc3)cc2s1)[C@@H]1C[C@H]1F [a-01-03]
1.73 nM	151 nM	O=C(Nc1nc2ccc(-c3cnc(CO[C@H]4CCC[C@@H]4O)nc3)cc2s1)[C@@H]1C[C@@H]1F [a-01-04]
2.08 nM	121 nM	O=C(Nc1nc2ccc(-c3cnc(CO[C@H]4CCC[C@@H]4O)nc3)cc2s1)C1C[C@H]1c1cccnc1 (some centres unmarked) [a-01-05]
–	170 nM	CO[C@H]1C[C@@H](C(=O)Nc2nc3ccc(-c4cnc(CO[C@H]5CCC[C@@H]5O)nc4)cc3s2)C1 [a-01-06]
1.73 nM	148 nM	Cn1cc([C@@H]2CC2C(=O)Nc2nc3ccc(-c4cnc(CO[C@H]5CCC[C@@H]5O)nc4)cc3s2)cn1 (some centres unmarked) [a-01-07]
2.66 nM	161 nM	O=C(Nc1nc2ccc(-c3cnc(CO[C@H]4CCC[C@@H]4O)nc3)cc2s1)C1C[C@H]1c1ccncc1 (some centres unmarked) [a-01-08]
1.81 nM	140 nM	O=C(Nc1nc2ccc(-c3cnc(CO[C@H]4CCC[C@@H]4O)nc3)cc2s1)C1C[C@H]1C1CCOCC1 (some centres unmarked) [a-01-09]
12.1 nM	678 nM	COc1ccc([C@@H]2CC2C(=O)Nc2nc3ccc(-c4cnc(CO[C@H]5CCC[C@@H]5O)nc4)cc3s2)cc1 (some centres unmarked) [a-01-10]
–	200 nM	CC1(F)CN(C2CC(C(=O)Nc3nc4ccc(-c5cnc(CO[C@H]6CCC[C@@H]6O)nc5)cc4s3)C2)C1 (some centres unmarked) [b-02-45]
–	164 nM	O=C(Nc1nc2ccc(-c3cnc(CO[C@H]4CCC[C@@H]4O)nc3)cc2s1)C1CC(NC2CC(F)(F)C2)C1 (some centres unmarked) [b-02-64]
–	113 nM	CN(C1CC(C(=O)Nc2nc3ccc(-c4cnc(CO[C@H]5CCC[C@@H]5O)nc4)cc3s2)C1)C1(C#N)CC1 (some centres unmarked) [b-02-73]
–	186 nM	O=C(Nc1nc2ccc(-c3cnc(CO[C@H]4CCC[C@@H]4O)nc3)cc2s1)C1CC(N2CCCC3(COC3)C2)C1 (some centres unmarked) [b-02-75]
–	81 nM	C[C@H]1CN(S(C)(=O)=O)CCN1[C@H]1C[C@@H](C(=O)Nc2nc3ccc(-c4cnc(CO[C@H]5CCC[C@@H]5O)nc4)cc3s2)C1 [b-05-08]
–	93 nM	CCNC(=O)N1CCN([C@H]2C[C@@H](C(=O)Nc3nc4ccc(-c5cnc(CO[C@H]6CCC[C@@H]6O)nc5)cc4s3)C2)[C@@H](C)C1 [b-06-01]
–	186 nM	COc1c(-c2cnc(CO[C@H]3CCC[C@@H]3O)nc2)ccc2nc(NC(=O)[C@H]3C[C@@H]3C)sc12 [c-02-02]
–	229 nM	COc1c(-c2cnc(CO[C@H]3CCC[C@@H]3O)nc2)ccc2nc(NC(=O)[C@H]3C[C@H]3C)sc12 [c-02-03]
–	111 nM	COCC(=O)N1CCC2(CC1)CC(C(=O)Nc1nc3ccc(-c4cnc(CO[C@H]5CCC[C@@H]5O)nc4)cc3s1)C2 [d-03-02]
–	87 nM	O=C(Nc1nc2ccc(-c3cnc(CO[C@H]4CCC[C@@H]4O)nc3)cc2s1)C1CC2(CCN(C(=O)C3CC3)CC2)C1 [d-03-03]
–	194 nM	O=C(Nc1nc2ccc(-c3cnc(CO[C@H]4CCC[C@@H]4O)nc3)cc2s1)C1CC2(CCN(C(=O)c3ccccc3)CC2)C1 [d-03-04]
–	169 nM	O=C(Nc1nc2ccc(-c3cnc(CO[C@H]4CCC[C@@H]4O)nc3)cc2s1)[C@H]1C[C@@H](OCC2CC2)C1 [d-04-04]

SMILES	IC50 [1]	IC50 [2]
CC(C)(C)OC1CC(C(=O)Nc2cc3cc(-c4cnc(CO[C@H]5CCC[C@@H]5O)nc4)ccn3n2)C1 (stereo partly drawn) [e-03-01, 3-(tert-Butoxy)-N-(5-(2-((((1S,2S)-2-hydroxycyclopentyl)oxy)methyl)pyrimidin-5-yl)pyrazolo[1,5-a]pyridin-2-yl)cyclobutane-1-carboxamide]	–	168 nM
